These results are taken from patent publication US11883410B2, “Preventative and therapeutic agents for sarcopenia” (NATIONAL UNIVERSITY CORPORATION TOKYO UNIVERSITY OF …, priority 2018, dated 2024).

What all share (type): in vivo
Series [1] relates to tail-suspended mice (disuse muscle atrophy of lower limbs). Description: Evaluation of inhibition of muscular atrophy in tail-suspended mice, Part 2. The following applies: feed containing 0.01 mass % for 2 weeks during tail-suspension; vs control tail-suspension group. As for the experimental part:
(§1) Eight-week-old C57/BL6J male mice (Japan SLC, Inc., Shizuoka, Japan) were subjected to the tail-suspension to obtain mice model with disuse muscle atrophy of their lower limbs.
While the tail-suspension was performed, feed containing 0.01 mass % compound (1), compound (2), compound (3), compound (4), or compound (5) was fed for 2 weeks (compound (1) administration group, compound (2) administration group, compound (3) administration group, compound (4) administration group, and compound (5) administration group). […] The number of tests was n=8 in each group.
Two weeks after the initiation of the experiment (the initiation of the tail-suspension and the initiation of feeding with the feed that contained the compounds), micro-CT imaging of the mouse hind limbs was performed. The muscle volume at the periphery of the tibia (triceps surae muscle) was measured using 3D volumetric analysis software. Micro-CT imaging was performed using a microfocus X-ray CT system (micro-CT: SMX-90T, manufactured by Shimadzu Corporation).
The midpoint of the fibula in the lower limb of each mouse was determined using 3D images created from the micro-CT images, and the volume of total muscle mass at the measurement area starting from the midpoint was measured. […] The rate of increase was calculated according to the following: (compound administration group−control tail-suspension group)/(normal breeding group−control tail-suspension group)×100.
Furthermore, the gastrocnemius muscle was collected from the mouse hind limb after the tail-suspension, and the wet mass (muscle mass) was measured. […] The rate of increase was calculated according to the following: (compound administration group−control tail-suspension group)/(normal breeding group−control tail-suspension group)×100.
(§2) A Student's t-test was used for the significant difference test.

Series [2] shares this test system. The series can be described thus: Inhibition of muscular atrophy in tail-suspended mice, Part 3 (feeding started one week after tail-suspension). The following applies: feed containing 0.3 mass % for 2 weeks starting one week after tail-suspension; vs control tail-suspension group. As for the experimental part: as §1
One week after tail-suspension, feed that contained 0.3 mass % compound (1) was fed for 2 weeks (compound (1) administration group). […] The number of tests was n=8 in each group.
Micro-CT imaging of the mouse hind limbs was performed before tail suspension, 1 week after suspension, 2 weeks after suspension, and 3 weeks after suspension. The muscle volume at the periphery of the tibia (triceps surae muscle) was measured using 3D volumetric analysis software. Micro-CT imaging was performed using a microfocus X-ray CT system (micro-CT: SMX-90T, manufactured by Shimadzu Corporation).
The midpoint of the fibula in the lower limb of each mouse was determined using 3D images created from the micro-CT images, and the volume of total muscle mass at the measurement area starting from the midpoint was measured.
Furthermore, the gastrocnemius muscle was collected from the mouse hind limb three weeks after the tail-suspension, and the wet mass (muscle mass) was measured.
as §2

Series [3] has the same test system. The series can be described thus: Evaluation of inhibition of muscular atrophy in tail-suspended mice, Part 1. Particulars: feed containing 0.01, 0.1 or 0.3 mass % for 2 weeks during tail-suspension; vs control tail-suspension group. As for the experimental part:
Eight-week-old C57/BL6J male mice (Japan SLC, Inc., Shizuoka, Japan) were subjected to tail-suspension to obtain mice model with disuse muscle atrophy of their lower limbs.
The tail-suspension was performed according to the description in Skelet Muscle. 2015; 5:34. […] Tail-suspension is known to cause skeletal muscle mass loss and muscle strength loss in the hind limbs, whereby an experimental model with disuse muscle atrophy, which is one type of sarcopenia, can be produced.
During the period of tail-suspension, feed containing 0.01, 0.1, or 0.3 mass % compound (1) was fed for 2 weeks (compound (1) administration groups). […] The number of tests was n=8 in each group.
Two weeks after the initiation of the experiment (the initiation of the tail-suspension and the initiation of feeding of the feed that contained the compound), micro-CT (micro-computed tomography) imaging of the mouse hind limbs was performed. The muscle volume at the periphery of the tibia (triceps surae muscle) was measured using 3D volumetric analysis software. Micro-CT imaging was performed using a microfocus X-ray CT system (micro-CT: SMX-90T manufactured by Shimadzu Corporation).
The midpoint of the fibula in the lower limb of each mouse was determined using 3D images created from the micro-CT images, and the volume of total muscle mass at the measurement area starting from the midpoint was measured. […]

Series [4] in a line: Evaluation of blood kinetics of compound in mice (mixed feed). The following applies: for Cmax / AUC(0-t): male, mouse, po, C57BL/6 mice, plasma, LC/MS; for AUC(0-t): read-out: AUC0-24 h. As for the experimental part: Mixed feed that contained 0.01, 0.1, or 0.3 mass % compound (1) were fed to 7-week-old C57BL/6 mice (male, Charles River Japan Ltd., weight: 20.7-23.7 g) for 13 days.
Blood was collected from the face by using an animal lancet at 10 a.m., 1, 5, and 9 p.m. on day 12 and 10 a.m. on day 13.
About 75 μL of blood was collected into a heparin-coated hematocrit tube. The concentration of the compound in the plasma after centrifugation was measured using liquid chromatography-mass spectrometry (LC/MS).
Since a mouse with a body weight of about 20 g consumes about 4 g of the feed per day (spilling of food is not assumed), the daily intake of the compound is estimated to be 0.4 mg (0.01 mass % mixed feed), 4 mg (0.1 mass % mixed feed), or 12 mg (0.3 mass % mixed feed). The body weight conversion values were 20 mg/kg (0.01 mass % mixed feed), 200 mg/kg (0.1 mass % mixed feed), and 600 mg/kg (0.3 mass % mixed feed).

Setting [5] is: 20 mg/kg, 0.01% mixed feed for 13 days.
The mark [6] stands for this setting: 200 mg/kg, 0.1% mixed feed for 13 days.
Where [7] appears, read: 600 mg/kg, 0.3% mixed feed for 13 days.

What is called Cmax is the highest concentration seen after dosing.

Where two headings read alike, the source gives them in different places.

For `c1ccc(C(OC2CCN(CCCc3nnn[nH]3)CC2)c2ccccc2)cc1` [compound (2), 4-(diphenylmethoxy)-1-[3-(2H-tetrazol-5-yl)propyl]piperidine], in series [1], the “muscle volume at the periphery of the tibia (triceps surae muscle), micro-CT (FIG. 6, FIG. 7)” value (“muscle volume … (FIG. 6, FIG. 7)” below) is on record as “did not show significant suppression of muscle mass loss although a tendency toward suppression was observed” and the “wet mass (muscle mass) of gastrocnemius muscle (FIG. 8, FIG. 9)” value (from here on “wet mass (muscle mass) … (FIG. 8, FIG. 9)”) is recorded as “did not show a significant difference although a tendency toward suppression of the decrease in the muscle amount was observed”.
Consider `Cn1cccc1C(=O)N1CCN(C(=O)Nc2ccc(N3CCC(C(=O)N4CCOCC4)CC3)cc2)CC1` [compound (1), 4-{(1-methyl-1H-pyrrol-2-yl)carbonyl}-N-[4-{4-(4-morpholinylcarbonyl)-1-piperidinyl}phenyl]-1-piperazine carboxamide], for which, in series [1], the “muscle volume … (FIG. 6, FIG. 7)” value was “significant suppression of muscle mass loss” and the “wet mass (muscle mass) … (FIG. 8, FIG. 9)” value is listed as “significant suppression of the decrease in the muscle amount”. Moreover, in series [2], the “muscle volume change at the periphery of the tibia (triceps surae muscle), micro-CT (FIG. 11)” value was “significantly higher muscle amount at week 2 and week 3”; the “wet mass (muscle mass) of gastrocnemius muscle three weeks after tail-suspension (FIG. 12)” value is recorded as “significant therapeutic effect on the muscle amount”. Moreover, in series [3], the “muscle volume at the periphery of the tibia (triceps surae muscle), micro-CT (FIG. 2)” value is listed as “significant suppression of muscle mass loss”; the “wet mass (muscle mass) of gastrocnemius, soleus, tibialis anterior and extensor digitorum longus muscles (FIG. 3)” value is reported as “a tendency to suppress a decrease in the muscle amount in all of the hind limb muscles”. Besides, in series [4] (setting [5]), the highest concentration (Cmax) was 230 nM and the AUC(0-t) came out at 4.29 µM·h. In series [4] (setting [6]), the peak concentration (Cmax) stood at 2210 nM and the AUC(0-t) is 38.3 µM·h. In series [4] (setting [7]), the peak level (Cmax) was 6410 nM and the AUC(0-t) stood at 104 µM·h. For the same molecule, the “compound concentration in blood” value in series [4] (mixed feed in the range of 0.01 mass % to 0.3 mass %) is listed as “dose-dependent increase in the compound concentration in blood”.
In the case of `Cn1cccc1C(=O)N1CCN(C(=O)NC2CCN(c3ccc(CCn4ccnn4)cc3)CC2)CC1` [compound (5), 4-((1-methylpyrrol-2-yl)-carbonyl)-N-(1-(4-(2-(1H-1,2,3-triazol-1-yl)-ethyl)-phenyl)-piperidin-4-yl)-1-piperazine carboxamide], in series [1], the “muscle volume … (FIG. 6, FIG. 7)” value is given as “significant suppression of muscle mass loss” and the “wet mass (muscle mass) … (FIG. 8, FIG. 9)” value is given as “significant suppression of the decrease in the muscle amount”.
Taken in the same sequence, the figures for `O=C(Nc1ccc(N2CCC(CCn3cncn3)C2)cc1)N1CCC(=Cc2ccccn2)CC1` (stereo not shown) [compound (4), N-(4-(3-(2-(1H-1,2,4-triazol-1-yl)ethyl)pyrrolidin-1-yl)phenyl)-4-(pyridin-2-ylmethylene)piperidine-1-carboxamide] were “significant suppression of muscle mass loss” and “significant suppression of the decrease in the muscle amount”.
